# Patent US20140357688A1, “METHOD FOR INHIBITING EZH2 EXPRESSION IN BREAST CANCER CELLS” (Yung Shin Pharm. Ind. Co., Ltd., priority 2013, published 2014)
# Columns and labels:
# Hs578T = test: MTT cell viability assay; format: cell-based, human
# Method: (§1) Human breast cancer cells, MDA-MB-468, MDA-MB-157, MDA-MB-231, MDA-MB-453, and Hs578T, and immortalized mammary epithelial cell lines, 184A1 and MCF-10A, were obtained from American Type Culture Collection (Manassas, Va., USA). MDA-MB-468, MDA-MB-157, MDA-MB-231, and MDA-MB-453 were cultured in DMEM/F12 medium supplemented with 10% FBS, 100 U/ml penicillin, and 100 μg/ml streptomycin. Hs578T was cultured in RPMI 1640 medium containing 10% FBS, 2 mM L-glutamine, 100 U/ml penicillin, and 100 μg/ml streptomycin. 184A1 and MCF-10A were cultured in DMEM/F12 medium supplemented with 5% horse serum, 0.5 μg/ml hydrocortisone, 10 μg/ml insulin, 20 ng/ml epidermal growth factor, 0.1 μg/ml cholera enterotoxin, 2 mM L-glutamine, 100 U/ml penicillin, and 100 μg/ml streptomycin. All cells were maintained in a humidified incubator containing 5% CO2. For hypoxia treatment, cells were incubated in a chamber flushed with 1% 02, 5% CO2, and 94% N2 at 37° C.
# (§2) Cell viability was measured by 3-(4,5-Dimethyl-2-thiazolyl)2,5-diphenyl-2H-tetrazolium bromide (MTT) assay.
# MDA-MB-157 = test: MTT cell viability assay; format: cell-based, human
# Method: as §1, §2
# MDA-MB-468 cells = test: Morphological analysis of apoptosis by fluorescent staining (FDA/PI); format: cell-based, human; conditions: 3 μM YC-1, after 6 h-treatment
# Method: (A) Cells were treated with indicated concentration of YC-1 for 6, 24, and 48 h. Cell viability was determined by MTT method. (B) MDA-MB-468 cells were treated with 3 μM YC-1 for 0, 6, and 12 h, and then stained with fluorescence diacetate (FDA) and propidium iodide (PI). Cell morphology was assessed by fluorescence microscopy with magnification ×20 (upper 3 rows) or ×40 (lowest row). (C) MDA-MB-468 cells were treated with 3 μM YC-1 for 24 h, cells were lysed and subjected to western blot analysis described in Materials and Methods. β-actin is a loading control. Blots were representative of results from three independent experiments. (D) Cells were treated with vehicle (DMSO, as control) or 3 μM YC-1 for 6 h. The cell cycles were analyzed by flow cytometry. (E) Cells were treated with indicated concentration of YC-1 and then performed with clonogenic assay.
# Vital and apoptotic cells were observed under staining with fluorescein diacetate (2 mg/ml) and propidium iodide (4 mg/ml) for 10 min. Cells were visualized and recorded on a LeicaDC300 microscope with digital camera.
# MDA-MB-468 xenograft = test: MDA-MB-468 breast cancer xenograft animal model; format: in vivo, Nu/Nu mice
# Method: MDA-MB-468 cells were used to inoculate Nu/Nu mice. (A, left) Tumor bearing mice were given vehicle (10 μl DMSO, CTL) or YC-1 (30 and 60 mg/kg/day) by ip treatment. (B, right) Tumor bearing mice were given vehicle (normal saline, CTL) or YC-1-succinate (YC-1-S; 20, 40, and 80 mg/kg/day) by oral administration. During treatment period, tumor volume and body weights of mice were measured once per 3 days. Data are expressed as mean of tumor volume (mm^3)±S.E.M. from 6 mice (YC-1 treatment) or 10 mice (YC-1-S treatment). Tumor weights (B) and body weights of mice (C) in control and YC-1/YC-1-S-treated groups were recorded.
# Nu/Nu female mice (four weeks old) were from National Laboratory Animal Center, Taipei, Taiwan. Mice were maintained under procedures and guidelines from the Institutional Animal Care and Use of the National Health Research Institutes. MDA-MB-468 breast cancer cells (5×10^6 cells per mouse) were suspended in 0.1 ml of Matrigel solution (50%, v/v, Matrigel in 1×PBS) and inoculated into the mammary fat pads of nude mice. When the tumor masses reached to 100 mm^3, the tumor bearing mice were randomly divided into different groups for different dosage of YC-1 treatments. The mice were given by intraperitoneal injection with YC-1 or oral administration of YC-1-succinate. Tumor size and body weights of mice were measured once per 3 days and tumor volume (mm^3) was calculated as the equation: length×[…]. At the end of experiments, mice were sacrificed and tumor nodules were dissected and weighted. Tumor tissues were subjected to western blot analysis.
# EED = test: Western blot of PRC2 protein expression in MDA-MB-468 cells; format: cell-based, human; conditions: 24 h
# Method: (§3) (A)(B) Cells were treated with indicated concentration of YC-1 for 24 h (A) or 3 μM of YC-1 for indicated time (B). Cells were harvested and performed with western blotting analysis. […] The levels of protein expression were quantitated and shown under blots. (C) Cells were transfected with EZH2 shRNA for 0, 1, 2, 3, and 4 days and collected for determination of cell viability (left) and protein expression (right). (D)(E) After 4 days of EZH2 knockdown, cells were incubated with 3 μM YC-1 for 4 h and detected cell viability (D) and protein contents (E). (F) Tumor specimens were isolated and protein was extracted for western blot analysis.
# (§4) Cells were lysed in PBS containing proteinase inhibitor and phosphatase inhibitors and sonication. Protein concentration was measured using the Bio-Rad protein assay kit (Bio-Rad Laboratories, Hercules, Calif., USA). Lysate protein was separated by electrophoresis of SDS-PAGE and transferred to Immobilon P membrane (EMD Millipore). The membranes were incubated with appropriate primary antibodies and horseradish peroxidase-conjugated secondary antibodies (EMD Millipore). The signaling was visualized using Chemiluminescence substrate kit (EMD Millipore) and collected by the Luminesence image analyzer, LAS4000 (Fuji Photo Film Co., Tokyo, Japan). The band intensities were analyzed and quantified by the Multi Gauge software (Fuji Photo Film).
# RbAp48 = test: as above; format: cell-based, human; conditions: 24 h
# Method: as §3, §4
# SUZ12 = test: as above; format: cell-based, human; conditions: 24 h
# Method: as §3, §4
# CDK1 = test: Western blot of CDK1 activation; format: cell-based, human; conditions: 3 μM YC-1
# Method: (A) MDA-MB-468 cells were incubated with 3 μM YC-1 for indicated time. Cells were harvested for the detection of phospho-Akt (Ser473), Akt, and PCNA. (B) Cells were pretreated with LY294002 (LY, 10 μM) for 1 h followed by 3 μM YC-1 induction for 6 h. (C) MDA-MB-468 cells were incubated with 3 μM YC-1 for indicated time. Cells were harvested for the detection of phospho-CDK1 (Thr161), CDK1, phospho-EZH2 ([…]), EZH2, and β-actin expression with western blot analysis. Levels of EZH2 phosphorylation were calculated by phospho-EZH2 normalized by total EZH2. (D) Cells were treated with YC-1 for 6 h in the absence or presence of roscovitine (Rosc, 20 μM). Cells were harvested and analyzed by western blotting for protein expression. (E) CDK1 knockdown of MDA-MB-468 cells were induced with 3 μM YC-1 for 4 h and followed by western blot analysis.
# Cells were lysed in PBS containing proteinase inhibitor and phosphatase inhibitors and sonication. Protein concentration was measured using the Bio-Rad protein assay kit (Bio-Rad Laboratories, Hercules, Calif., USA). Lysate protein was separated by electrophoresis of SDS-PAGE and transferred to Immobilon P membrane (EMD Millipore). […] The band intensities were analyzed and quantified by the Multi Gauge software (Fuji Photo Film).
structure (smiles),measurement,setting,value
"OCc1ccc(-c2nn(Cc3ccccc3)c3ccccc23)o1 [YC-1, 3-(5′-hydroxymethyl-2′-furyl)-1-benzyl indazole]",effect on cell viability,Hs578T,no effect
same,effect on cell viability,MDA-MB-157,no effect
same,morphological changes (apoptosis),MDA-MB-468 cells,obviously morphological changes with apoptotic characteristics
same,tumor growth,MDA-MB-468 xenograft; 30 and 60 mg/kg by intraperitoneal injection,significantly inhibited the tumor growth
same,body weights of mice,MDA-MB-468 xenograft; 30 and 60 mg/kg/day ip,not affected
same,tumor weight,MDA-MB-468 xenograft; 30 and 60 mg/kg/day ip,dose-dependently reduced tumor weight
same,EED protein expression,EED,no effect
same,RbAp48 protein expression,RbAp48,effectively concentration-dependent suppression
same,SUZ12 protein expression,SUZ12,effectively concentration-dependent suppression
same,CDK1 activation,CDK1,could induce the activation
